BindingDB's records for doi:10.1038/nchembio.1603 (Glaxosmithkline, 2014)
pIC50: −log10 of the molar value.

Biological target: Fatty acid synthase (Homo sapiens, UniProt P49327)
Test: FAS Assay No1
Method: Inhibition of FAS by benzimidazole was measured by an endpoint assay for NADPH consumption.

Chain of Fatty acid synthase (P49327 whole entry): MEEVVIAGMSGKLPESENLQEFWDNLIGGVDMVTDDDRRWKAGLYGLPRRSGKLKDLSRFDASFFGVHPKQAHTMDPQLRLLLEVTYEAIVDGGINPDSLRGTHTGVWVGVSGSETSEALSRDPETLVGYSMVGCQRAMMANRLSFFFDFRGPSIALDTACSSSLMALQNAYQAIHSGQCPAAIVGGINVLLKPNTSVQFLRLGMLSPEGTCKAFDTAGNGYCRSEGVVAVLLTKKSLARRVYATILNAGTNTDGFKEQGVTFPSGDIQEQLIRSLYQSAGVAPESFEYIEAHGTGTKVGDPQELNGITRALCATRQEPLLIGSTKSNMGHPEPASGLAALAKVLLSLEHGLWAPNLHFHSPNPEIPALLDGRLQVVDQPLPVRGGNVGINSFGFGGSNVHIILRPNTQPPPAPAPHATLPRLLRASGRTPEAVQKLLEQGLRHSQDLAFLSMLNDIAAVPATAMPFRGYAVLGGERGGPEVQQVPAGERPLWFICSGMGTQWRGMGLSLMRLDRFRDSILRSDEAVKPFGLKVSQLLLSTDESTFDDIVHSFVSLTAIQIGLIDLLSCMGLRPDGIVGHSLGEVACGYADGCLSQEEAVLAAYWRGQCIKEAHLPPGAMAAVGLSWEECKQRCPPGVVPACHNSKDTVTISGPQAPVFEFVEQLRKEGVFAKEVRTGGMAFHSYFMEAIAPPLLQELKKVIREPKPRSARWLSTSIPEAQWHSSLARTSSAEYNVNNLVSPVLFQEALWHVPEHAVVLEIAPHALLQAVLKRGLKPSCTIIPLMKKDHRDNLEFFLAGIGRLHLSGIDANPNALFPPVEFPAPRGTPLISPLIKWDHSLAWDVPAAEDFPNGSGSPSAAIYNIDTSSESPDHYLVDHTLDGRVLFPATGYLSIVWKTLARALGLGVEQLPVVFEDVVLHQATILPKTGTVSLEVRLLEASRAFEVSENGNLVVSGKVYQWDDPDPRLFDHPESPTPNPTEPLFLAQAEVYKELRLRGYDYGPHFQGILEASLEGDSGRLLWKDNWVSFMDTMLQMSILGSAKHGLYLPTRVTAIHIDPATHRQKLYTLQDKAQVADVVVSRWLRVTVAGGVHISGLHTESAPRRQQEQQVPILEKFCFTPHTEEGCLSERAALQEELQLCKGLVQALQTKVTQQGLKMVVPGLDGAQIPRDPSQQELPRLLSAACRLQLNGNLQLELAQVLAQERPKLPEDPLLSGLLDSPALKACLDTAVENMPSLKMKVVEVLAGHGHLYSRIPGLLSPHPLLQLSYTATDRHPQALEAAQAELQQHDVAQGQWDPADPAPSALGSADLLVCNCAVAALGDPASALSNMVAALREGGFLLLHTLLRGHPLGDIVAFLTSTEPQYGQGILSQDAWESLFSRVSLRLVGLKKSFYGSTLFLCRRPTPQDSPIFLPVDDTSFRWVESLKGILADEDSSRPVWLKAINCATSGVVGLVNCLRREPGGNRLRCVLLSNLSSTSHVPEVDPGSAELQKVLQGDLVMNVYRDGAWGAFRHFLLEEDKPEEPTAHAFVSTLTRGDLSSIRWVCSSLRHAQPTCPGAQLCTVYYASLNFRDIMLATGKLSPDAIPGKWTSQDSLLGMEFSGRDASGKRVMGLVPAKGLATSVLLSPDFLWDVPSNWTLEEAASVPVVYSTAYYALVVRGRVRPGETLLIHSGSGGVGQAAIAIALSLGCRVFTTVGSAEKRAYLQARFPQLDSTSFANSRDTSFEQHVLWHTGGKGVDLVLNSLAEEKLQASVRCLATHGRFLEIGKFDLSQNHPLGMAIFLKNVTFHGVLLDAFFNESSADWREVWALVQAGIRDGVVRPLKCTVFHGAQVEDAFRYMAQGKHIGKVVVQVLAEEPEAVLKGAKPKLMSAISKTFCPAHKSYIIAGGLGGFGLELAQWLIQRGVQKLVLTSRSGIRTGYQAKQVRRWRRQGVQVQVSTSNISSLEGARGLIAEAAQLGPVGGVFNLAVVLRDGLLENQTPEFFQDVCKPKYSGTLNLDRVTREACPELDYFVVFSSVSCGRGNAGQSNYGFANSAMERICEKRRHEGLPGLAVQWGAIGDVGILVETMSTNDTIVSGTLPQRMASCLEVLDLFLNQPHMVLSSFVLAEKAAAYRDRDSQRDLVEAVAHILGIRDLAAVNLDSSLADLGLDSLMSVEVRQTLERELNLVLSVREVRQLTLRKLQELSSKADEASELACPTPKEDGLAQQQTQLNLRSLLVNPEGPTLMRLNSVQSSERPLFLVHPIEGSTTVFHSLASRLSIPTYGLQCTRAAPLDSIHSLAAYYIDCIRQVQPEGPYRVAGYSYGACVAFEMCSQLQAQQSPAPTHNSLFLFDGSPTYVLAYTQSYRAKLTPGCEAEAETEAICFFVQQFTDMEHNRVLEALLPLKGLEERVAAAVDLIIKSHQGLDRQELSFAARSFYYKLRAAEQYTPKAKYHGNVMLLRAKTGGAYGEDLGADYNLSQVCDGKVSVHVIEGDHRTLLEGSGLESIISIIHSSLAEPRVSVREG

pIC50: 6.00
Compound: CNC(=O)c1ccc2nc(-c3ccc(-c4ccccc4)cc3)n(CC3CCN(C(=O)C4CC4)C3)c2c1 (stereo unspecified) [2-([1,1'-Biphenyl]-4-yl)-1-((1-(cyclopropanecarbonyl)pyrrolidin-3-yl)methyl)-N-methyl-1H-benzo[d]imidazole-6-carboxamide]
